The text below walks through data of ChEMBL document CHEMBL3044788, “α-(Substituted-phenoxyacetoxy)-α-heterocyclylmethylphosphonates: synthesis, herbicidal activity, inhibition on pyruvate dehydrogenase complex (PDHc), and application as postemergent herbicide against broadleaf weeds” (J Agric Food Chem, 2013).

The structures appear in SMILES notation.

Type in all cases: functional
The subject of test [1] is Brassica rapa subsp. oleifera. The test can be described thus: Herbicidal activity against two to three-leaf stage Brassica rapa subsp. oleifera assessed as inhibition of plant growth at 150 g/ha in greenhouse by postemergence herbicidal activity assay. The settings on record: post-emergence, read-out: GI.
Test [2] concerns Amaranthus retroflexus. The test can be described thus: Herbicidal activity against 2 to 3 leaf stage Amaranthus retroflexus assessed as inhibition of plant growth at 150 g/ha in greenhouse by postemergence herbicidal activity assay. The following applies: post-emergence, read-out: GI.
In test [3] the test system is Eclipta prostrata. Kind of test: Herbicidal activity against two to three-leaf stage Eclipta prostrata assessed as inhibition of plant growth at 150 g/ha in greenhouse by post-emergence herbicidal activity assay. The following applies: read-out: GI.
Test [4] has as its system Abutilon theophrasti. The test can be described thus: Herbicidal activity against two to three-leaf stage Abutilon theophrasti (velvetleaf) assessed as inhibition of plant growth at 150 g/ha in greenhouse by post-emergence herbicidal activity assay. The settings on record: read-out: GI.
The test system of test [5] is Brassica rapa subsp. oleifera. The test can be described thus: Herbicidal activity against two to three-leaf stage Brassica rapa subsp. oleifera assessed as inhibition of plant growth at 450 g/ha in greenhouse by postemergence herbicidal activity assay. The settings on record: post-emergence, read-out: GI.
The subject of test [6] is Eclipta prostrata. Kind of test: Herbicidal activity against two to three-leaf stage Eclipta prostrata assessed as inhibition of plant growth at 450 g/ha in greenhouse by post-emergence herbicidal activity assay. The following applies: read-out: GI.
Test [7] concerns Amaranthus retroflexus. Kind of test: Herbicidal activity against 2 to 3 leaf stage Amaranthus retroflexus assessed as inhibition of plant growth at 450 g/ha in greenhouse by postemergence herbicidal activity assay. The settings on record: post-emergence, read-out: GI.
The subject of test [8] is Abutilon theophrasti. The test can be described thus: Herbicidal activity against two to three-leaf stage Abutilon theophrasti (velvetleaf) assessed as inhibition of plant growth at 450 g/ha in greenhouse by post-emergence herbicidal activity assay. The settings on record: read-out: GI.

Turning to `COP(=O)(OC)C(OC(=O)COc1ccc(Cl)cc1C)c1ccco1` (stereo not drawn), the inhibition of growth at 150 g/ha in test [1] is 85%; in the test with Amaranthus retroflexus [2] it was 80%; in the test on Eclipta prostrata [3], 60%; in the test on Abutilon theophrasti [4], 80%.

Turning to `COP(=O)(OC)C(OC(=O)COc1ccc(Br)cc1)c1cccs1` (stereo not drawn), the inhibition of growth at 150 g/ha in test [1] was determined as 70%; in the test with Amaranthus retroflexus [2] it was 50%; with Eclipta prostrata [3] it was 60%; in the test with Abutilon theophrasti [4], 50%. Moreover, the inhibition of growth at 450 g/ha in test [5] is 75%; in the test with Eclipta prostrata [6], 60%; in the test with Amaranthus retroflexus [7], 60%; with Abutilon theophrasti [8], 70%.

As to `COP(=O)(OC)C(OC(=O)COc1cccc(C)c1)c1ccco1` (stereo not drawn), the inhibition of growth at 150 g/ha was determined as 37% in test [1], 36% in the test on Amaranthus retroflexus [2], 30% in the test with Eclipta prostrata [3] and 39% in the test on Abutilon theophrasti [4].

Regarding `COP(=O)(OC)C(OC(=O)COc1ccc(Cl)cc1C)c1cccs1` (stereo not drawn), the inhibition of growth at 150 g/ha worked out at 80% in test [1], 80% with Amaranthus retroflexus [2], 75% in the test with Eclipta prostrata [3] and 60% in the test with Abutilon theophrasti [4]. In addition, the inhibition of growth at 450 g/ha in test [5] stood at 95%; in the test with Eclipta prostrata [6], 100%; in the test on Amaranthus retroflexus [7], 100%; in the test on Abutilon theophrasti [8], 90%.

For `COP(=O)(OC)C(OC(=O)COc1ccc(C(F)(F)F)cc1)c1cccs1` (stereo not drawn), the inhibition of growth at 150 g/ha amounted to 20% in test [1], 20% in the test with Amaranthus retroflexus [2], 30% in the test with Eclipta prostrata [3] and 15% in the test on Abutilon theophrasti [4].

As for `COP(=O)(OC)C(OC(=O)COc1ccccc1)c1ccco1` (stereo not drawn), the inhibition of growth at 150 g/ha in test [1] came out at 28%; with Amaranthus retroflexus [2] it was 6%; in the test with Eclipta prostrata [3] it was 31%; with Abutilon theophrasti [4] it was 22%.

For the compound `COP(=O)(OC)C(OC(=O)COc1cccc(Cl)c1Cl)c1cccs1` (stereo not drawn), the inhibition of growth at 150 g/ha was 0% in test [1], 40% with Amaranthus retroflexus [2], 40% in the test with Eclipta prostrata [3] and 0% with Abutilon theophrasti [4]. The inhibition of growth at 450 g/ha amounted to 40% in test [5], 85% with Eclipta prostrata [6], 60% with Amaranthus retroflexus [7] and 40% with Abutilon theophrasti [8].

For the compound `COP(=O)(OC)C(OC(=O)COc1cccc(Cl)c1Cl)c1ccco1` (stereo not drawn), the inhibition of growth at 150 g/ha in test [1] worked out at 30%; in the test on Amaranthus retroflexus [2] it was 25%; in the test with Eclipta prostrata [3], 35%; with Abutilon theophrasti [4], 20%.

As for `COP(=O)(OC)C(OC(=O)COc1ccccc1F)c1ccco1` (stereo not drawn), the inhibition of growth at 150 g/ha was found to be 75% in test [1], 60% in the test with Amaranthus retroflexus [2], 60% in the test on Eclipta prostrata [3] and 40% in the test on Abutilon theophrasti [4].

For the compound `COP(=O)(OC)C(OC(=O)COc1ccccc1Cl)c1cccs1` (stereo not drawn), the inhibition of growth at 150 g/ha (in test [1]; with Amaranthus retroflexus [2]; with Eclipta prostrata [3]; in the test with Abutilon theophrasti [4]) was 0% throughout. Further, the inhibition of growth at 450 g/ha in test [5] worked out at 30%; in the test on Eclipta prostrata [6] it was 85%; with Amaranthus retroflexus [7], 50%; in the test with Abutilon theophrasti [8] it was 40%.

`COP(=O)(OC)C(OC(=O)COc1cccc(C(F)(F)F)c1)c1cccs1` (stereo not drawn): the inhibition of growth at 150 g/ha in test [1] came to 30%; in the test with Amaranthus retroflexus [2], 20%; in the test with Eclipta prostrata [3] it was 15%; in the test with Abutilon theophrasti [4], 20%.

Regarding `COP(=O)(OC)C(OC(=O)COc1ccc(Br)cc1)c1ccco1` (stereo not drawn), the inhibition of growth at 150 g/ha in test [1] is 75%; in the test with Amaranthus retroflexus [2], 60%; with Eclipta prostrata [3] it was 60%; in the test on Abutilon theophrasti [4], 40%.

`COP(=O)(OC)C(OC(=O)COc1ccc(C)cc1)c1ccco1` (stereo not drawn): the inhibition of growth at 150 g/ha in test [1] turned out to be 36%; with Amaranthus retroflexus [2], 23%; with Eclipta prostrata [3], 30%; with Abutilon theophrasti [4] it was 32%.

`COP(=O)(OC)C(OC(=O)COc1ccc(Cl)c(C)c1)c1ccco1` (stereo not drawn): the inhibition of growth at 150 g/ha was 80% in test [1], 80% with Amaranthus retroflexus [2], 75% in the test on Eclipta prostrata [3] and 80% in the test on Abutilon theophrasti [4].

`COP(=O)(OC)C(OC(=O)COc1ccc(F)cc1Cl)c1ccco1` (stereo not drawn): the inhibition of growth at 150 g/ha in test [1] amounted to 85%; in the test with Amaranthus retroflexus [2] it was 90%; with Eclipta prostrata [3] it was 75%; with Abutilon theophrasti [4], 75%.

As for `COP(=O)(OC)C(OC(=O)COc1cccc(C)c1C)c1ccco1` (stereo not drawn), the inhibition of growth at 150 g/ha in test [1] was 40%; in the test with Amaranthus retroflexus [2] it was 50%; in the test on Eclipta prostrata [3], 30%; in the test with Abutilon theophrasti [4] it was 50%.

Turning to `COP(=O)(OC)C(OC(=O)COc1ccc(Cl)cc1F)c1cccs1` (stereo not drawn), the inhibition of growth at 150 g/ha (in test [1]; in the test with Amaranthus retroflexus [2]; in the test on Eclipta prostrata [3]; with Abutilon theophrasti [4]) was 70% throughout. For the same compound, the inhibition of growth at 450 g/ha came out at 75% in test [5], 90% with Eclipta prostrata [6], 75% with Amaranthus retroflexus [7] and 75% in the test with Abutilon theophrasti [8].

As for `COP(=O)(OC)C(OC(=O)COc1cccc(C)c1C)c1cccs1` (stereo not drawn), the inhibition of growth at 150 g/ha was 0% in test [1], 40% in the test with Amaranthus retroflexus [2], 0% in the test with Eclipta prostrata [3] and 0% in the test on Abutilon theophrasti [4]. Also, the inhibition of growth at 450 g/ha in test [5] worked out at 0%; with Eclipta prostrata [6], 70%; in the test with Amaranthus retroflexus [7], 40%; in the test on Abutilon theophrasti [8], 0%.

Take `COP(=O)(OC)C(OC(=O)COc1ccc(C(F)(F)F)cc1)c1ccco1` (stereo not drawn): the inhibition of growth at 150 g/ha (in test [1]; in the test with Amaranthus retroflexus [2]; in the test with Eclipta prostrata [3]; in the test with Abutilon theophrasti [4]) was 0% in each case.

On to `COP(=O)(OC)C(OC(=O)COc1cc(Cl)c(Cl)cc1Cl)c1cccs1` (stereo not drawn), for which the inhibition of growth at 150 g/ha (in test [1]; in the test with Amaranthus retroflexus [2]; with Eclipta prostrata [3]; with Abutilon theophrasti [4]) was 80% each time. Further, the inhibition of growth at 450 g/ha in test [5] is 95%; with Eclipta prostrata [6] it was 50%; with Amaranthus retroflexus [7], 90%; in the test with Abutilon theophrasti [8], 85%.

Turning to `COP(=O)(OC)C(OC(=O)COc1ccc(C#N)cc1)c1cccs1` (stereo not drawn), the inhibition of growth at 150 g/ha in test [1] came to 30%; in the test on Amaranthus retroflexus [2], 40%; with Eclipta prostrata [3], 0%; with Abutilon theophrasti [4], 30%. In addition, the inhibition of growth at 450 g/ha in test [5] was found to be 40%; with Eclipta prostrata [6], 60%; with Amaranthus retroflexus [7], 40%; with Abutilon theophrasti [8], 40%.

Take `COP(=O)(OC)C(OC(=O)COc1cc(Cl)c(Cl)cc1Cl)c1ccco1` (stereo not drawn): the inhibition of growth at 150 g/ha in test [1] stood at 85%; in the test with Amaranthus retroflexus [2] it was 75%; with Eclipta prostrata [3], 80%; with Abutilon theophrasti [4], 75%.

On to `COP(=O)(OC)C(OC(=O)COc1ccc(F)cc1F)c1ccco1` (stereo not drawn), for which the inhibition of growth at 150 g/ha in test [1] is 60%; with Amaranthus retroflexus [2] it was 50%; in the test with Eclipta prostrata [3], 40%; in the test with Abutilon theophrasti [4] it was 40%.

Consider `COP(=O)(OC)C(OC(=O)COc1ccc(Cl)cc1F)c1ccco1` (stereo not drawn), for which the inhibition of growth at 150 g/ha in test [1] was determined as 75%; in the test on Amaranthus retroflexus [2] it was 60%; with Eclipta prostrata [3] it was 70%; in the test with Abutilon theophrasti [4], 70%.

Consider `COP(=O)(OC)C(OC(=O)COc1cccc(C(F)(F)F)c1)c1ccco1` (stereo not drawn), for which the inhibition of growth at 150 g/ha (in test [1]; in the test on Amaranthus retroflexus [2]; in the test on Eclipta prostrata [3]; in the test on Abutilon theophrasti [4]) was 0% each time.

As for `COP(=O)(OC)C(OC(=O)COc1ccccc1F)c1cccs1` (stereo not drawn), the inhibition of growth at 150 g/ha was found to be 0% in test [1], 15% in the test on Amaranthus retroflexus [2], 20% with Eclipta prostrata [3] and 0% with Abutilon theophrasti [4].

With `COP(=O)(OC)C(OC(=O)COc1ccccc1Cl)c1ccco1` (stereo not drawn), the inhibition of growth at 150 g/ha is 40% in test [1], 40% with Amaranthus retroflexus [2], 30% in the test on Eclipta prostrata [3] and 0% in the test with Abutilon theophrasti [4].

Take `COP(=O)(OC)C(OC(=O)COc1ccc(Cl)cc1)c1ccco1` (stereo not drawn): the inhibition of growth at 150 g/ha in test [1] was determined as 75%; in the test on Amaranthus retroflexus [2], 70%; in the test with Eclipta prostrata [3] it was 70%; in the test on Abutilon theophrasti [4], 75%.

`COP(=O)(OC)C(OC(=O)COc1ccc(C#N)cc1)c1ccco1` (stereo not drawn): the inhibition of growth at 150 g/ha in test [1] is 40%; with Amaranthus retroflexus [2], 50%; in the test on Eclipta prostrata [3] it was 30%; with Abutilon theophrasti [4] it was 40%.
